Drawing on publication PMC11167047 (Cell Death Discovery, 2024), this text covers residual kinase activity for two compounds.

Experiment in all cases: kinome screen (33PanQinase)
Common to all, as to type: biochemical

One test addresses T1, HRI (Homo sapiens, UniProt Q9BQI3).
T1 construct: purchased Reaction Biology Europe GmbH (formerly ProQinase)
Here is the method: (§1) The Kinome Screening was performed by Reaction Biology Europe GmbH (http://reactionbiology.com; Freiburg i. Br., Germany).

For the next test, the target named is T2, CAMK2G (Homo sapiens, UniProt Q13555).
T2 construct: purchased Reaction Biology Europe GmbH (formerly ProQinase)
As to the method:
as §1

A further test addresses T3, SGK1 (Homo sapiens, UniProt O00141).
T3 construct: purchased Reaction Biology Europe GmbH (formerly ProQinase)
T3 sequence (O00141 1-431): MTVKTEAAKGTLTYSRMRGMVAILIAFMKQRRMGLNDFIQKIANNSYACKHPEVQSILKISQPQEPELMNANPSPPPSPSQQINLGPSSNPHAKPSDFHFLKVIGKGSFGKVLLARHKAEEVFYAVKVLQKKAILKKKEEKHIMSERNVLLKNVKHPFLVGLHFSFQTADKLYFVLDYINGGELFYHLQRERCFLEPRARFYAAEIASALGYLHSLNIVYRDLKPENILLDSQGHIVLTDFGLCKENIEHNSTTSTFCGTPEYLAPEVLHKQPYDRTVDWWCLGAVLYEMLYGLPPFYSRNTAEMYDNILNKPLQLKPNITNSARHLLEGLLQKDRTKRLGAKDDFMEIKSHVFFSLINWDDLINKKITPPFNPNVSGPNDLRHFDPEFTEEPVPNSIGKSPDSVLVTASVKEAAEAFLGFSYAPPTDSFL
Here is the method: as §1

The target of a further test is T4, CAMK2A (Homo sapiens, UniProt Q9UQM7).
T4 construct: purchased Reaction Biology Europe GmbH (formerly ProQinase)
As to the method:
as §1

In the next test the target is T5, WNK1 (Homo sapiens, UniProt Q9H4A3).
T5 construct: purchased Reaction Biology Europe GmbH (formerly ProQinase)
Here is the method: as §1

A further test concerns the target T6, PKCϴ (Homo sapiens, UniProt Q04759).
T6 construct: purchased Reaction Biology Europe GmbH (formerly ProQinase)
As to the method: as §1

For a further test, the target named is T7, MINK1 (Homo sapiens, UniProt Q8N4C8).
T7 construct: purchased Reaction Biology Europe GmbH (formerly ProQinase)
Here is the method:
as §1

The target in a further test is T8, JNK2 (Homo sapiens, UniProt P45984).
T8 construct: purchased Reaction Biology Europe GmbH (formerly ProQinase)
Here is the method: as §1

Another test addresses T9, EPHB3 (Homo sapiens, UniProt P54753).
T9 construct: purchased Reaction Biology Europe GmbH (formerly ProQinase)
T9 sequence (P54753 34-998): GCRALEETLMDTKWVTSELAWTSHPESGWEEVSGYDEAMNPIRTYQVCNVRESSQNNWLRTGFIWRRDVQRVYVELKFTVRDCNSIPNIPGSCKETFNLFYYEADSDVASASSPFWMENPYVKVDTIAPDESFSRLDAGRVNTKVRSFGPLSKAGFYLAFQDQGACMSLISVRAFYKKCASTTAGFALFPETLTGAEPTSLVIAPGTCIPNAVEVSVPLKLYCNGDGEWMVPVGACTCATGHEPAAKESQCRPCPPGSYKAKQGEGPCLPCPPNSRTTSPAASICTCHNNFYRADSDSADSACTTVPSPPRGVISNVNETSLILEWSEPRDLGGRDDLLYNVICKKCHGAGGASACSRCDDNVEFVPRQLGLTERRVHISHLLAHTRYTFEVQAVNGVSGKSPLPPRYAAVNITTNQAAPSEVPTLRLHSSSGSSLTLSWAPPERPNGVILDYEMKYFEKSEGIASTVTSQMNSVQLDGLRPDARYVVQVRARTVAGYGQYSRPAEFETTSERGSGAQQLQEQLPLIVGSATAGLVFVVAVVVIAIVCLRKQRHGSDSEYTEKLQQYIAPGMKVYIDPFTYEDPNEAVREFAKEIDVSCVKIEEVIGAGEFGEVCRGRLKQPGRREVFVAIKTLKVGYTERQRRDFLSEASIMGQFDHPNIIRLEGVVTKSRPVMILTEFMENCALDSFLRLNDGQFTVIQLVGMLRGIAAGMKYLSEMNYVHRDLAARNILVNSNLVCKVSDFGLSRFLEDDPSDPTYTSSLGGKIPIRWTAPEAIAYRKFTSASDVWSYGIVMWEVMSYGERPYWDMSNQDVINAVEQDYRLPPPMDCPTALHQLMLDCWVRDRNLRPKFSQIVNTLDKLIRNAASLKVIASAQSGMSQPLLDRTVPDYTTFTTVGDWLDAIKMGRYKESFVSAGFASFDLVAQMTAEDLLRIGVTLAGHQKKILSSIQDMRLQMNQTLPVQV
Here is the method: as §1

T5 sequence (Q9H4A3 whole entry): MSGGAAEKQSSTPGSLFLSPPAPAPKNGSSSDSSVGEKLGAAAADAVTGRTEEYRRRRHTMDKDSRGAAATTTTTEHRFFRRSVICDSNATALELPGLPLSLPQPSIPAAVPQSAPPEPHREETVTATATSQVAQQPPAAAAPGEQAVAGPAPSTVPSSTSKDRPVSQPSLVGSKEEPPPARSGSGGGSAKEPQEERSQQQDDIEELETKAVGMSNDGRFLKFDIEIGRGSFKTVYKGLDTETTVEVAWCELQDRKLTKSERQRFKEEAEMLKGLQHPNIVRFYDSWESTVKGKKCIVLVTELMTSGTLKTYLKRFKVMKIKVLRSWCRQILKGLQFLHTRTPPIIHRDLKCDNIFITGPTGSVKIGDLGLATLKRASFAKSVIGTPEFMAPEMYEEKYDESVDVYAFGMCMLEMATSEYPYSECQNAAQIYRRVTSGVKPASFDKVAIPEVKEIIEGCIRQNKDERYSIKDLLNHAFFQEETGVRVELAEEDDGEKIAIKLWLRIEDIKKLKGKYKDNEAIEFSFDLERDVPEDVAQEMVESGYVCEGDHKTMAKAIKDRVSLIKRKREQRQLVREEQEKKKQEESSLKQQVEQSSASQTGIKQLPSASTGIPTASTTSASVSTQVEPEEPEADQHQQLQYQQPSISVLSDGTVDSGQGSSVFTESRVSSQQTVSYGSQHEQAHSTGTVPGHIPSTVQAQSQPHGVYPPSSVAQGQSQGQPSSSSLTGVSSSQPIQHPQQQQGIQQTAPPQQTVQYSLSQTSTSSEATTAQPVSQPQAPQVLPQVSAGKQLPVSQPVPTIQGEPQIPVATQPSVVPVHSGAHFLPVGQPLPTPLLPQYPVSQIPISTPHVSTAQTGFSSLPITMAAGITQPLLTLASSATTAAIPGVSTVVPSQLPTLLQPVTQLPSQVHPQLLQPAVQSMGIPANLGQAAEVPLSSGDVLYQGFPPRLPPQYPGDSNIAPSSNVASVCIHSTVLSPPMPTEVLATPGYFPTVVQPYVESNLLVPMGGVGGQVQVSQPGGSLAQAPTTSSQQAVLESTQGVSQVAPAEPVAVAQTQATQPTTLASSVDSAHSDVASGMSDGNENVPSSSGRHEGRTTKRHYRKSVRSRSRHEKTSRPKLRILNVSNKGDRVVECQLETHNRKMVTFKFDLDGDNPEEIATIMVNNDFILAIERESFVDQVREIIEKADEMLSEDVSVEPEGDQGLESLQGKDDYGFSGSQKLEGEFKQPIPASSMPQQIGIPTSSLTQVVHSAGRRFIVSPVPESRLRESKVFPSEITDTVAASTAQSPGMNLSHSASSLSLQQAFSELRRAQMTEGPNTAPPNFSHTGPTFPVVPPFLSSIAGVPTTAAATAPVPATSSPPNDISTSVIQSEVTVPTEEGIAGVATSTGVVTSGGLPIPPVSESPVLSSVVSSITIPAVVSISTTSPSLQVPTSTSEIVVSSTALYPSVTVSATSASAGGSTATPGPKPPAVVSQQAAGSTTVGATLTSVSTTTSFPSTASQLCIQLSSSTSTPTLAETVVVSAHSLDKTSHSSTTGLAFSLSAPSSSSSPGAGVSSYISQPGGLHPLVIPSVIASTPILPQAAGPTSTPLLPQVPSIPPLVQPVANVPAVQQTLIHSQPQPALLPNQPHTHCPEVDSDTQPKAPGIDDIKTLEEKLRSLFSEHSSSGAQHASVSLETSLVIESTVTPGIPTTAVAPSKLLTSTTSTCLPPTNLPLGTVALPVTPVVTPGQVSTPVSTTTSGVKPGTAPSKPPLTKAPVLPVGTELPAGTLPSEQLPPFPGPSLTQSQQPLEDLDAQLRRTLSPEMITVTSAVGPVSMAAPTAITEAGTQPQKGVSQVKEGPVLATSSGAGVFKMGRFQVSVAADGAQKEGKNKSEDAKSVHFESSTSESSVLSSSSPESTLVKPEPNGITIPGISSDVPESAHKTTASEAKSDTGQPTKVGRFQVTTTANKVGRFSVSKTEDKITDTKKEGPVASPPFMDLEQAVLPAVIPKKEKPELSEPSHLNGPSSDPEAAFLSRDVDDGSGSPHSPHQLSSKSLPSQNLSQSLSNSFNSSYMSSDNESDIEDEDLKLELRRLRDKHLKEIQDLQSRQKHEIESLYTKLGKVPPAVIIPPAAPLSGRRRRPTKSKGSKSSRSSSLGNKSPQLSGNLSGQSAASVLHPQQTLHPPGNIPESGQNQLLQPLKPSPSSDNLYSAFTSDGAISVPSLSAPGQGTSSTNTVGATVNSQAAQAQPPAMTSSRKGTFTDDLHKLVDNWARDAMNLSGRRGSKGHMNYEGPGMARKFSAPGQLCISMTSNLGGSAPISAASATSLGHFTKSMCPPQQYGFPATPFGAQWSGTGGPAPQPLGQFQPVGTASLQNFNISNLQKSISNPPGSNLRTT
T2 sequence (Q13555 whole entry): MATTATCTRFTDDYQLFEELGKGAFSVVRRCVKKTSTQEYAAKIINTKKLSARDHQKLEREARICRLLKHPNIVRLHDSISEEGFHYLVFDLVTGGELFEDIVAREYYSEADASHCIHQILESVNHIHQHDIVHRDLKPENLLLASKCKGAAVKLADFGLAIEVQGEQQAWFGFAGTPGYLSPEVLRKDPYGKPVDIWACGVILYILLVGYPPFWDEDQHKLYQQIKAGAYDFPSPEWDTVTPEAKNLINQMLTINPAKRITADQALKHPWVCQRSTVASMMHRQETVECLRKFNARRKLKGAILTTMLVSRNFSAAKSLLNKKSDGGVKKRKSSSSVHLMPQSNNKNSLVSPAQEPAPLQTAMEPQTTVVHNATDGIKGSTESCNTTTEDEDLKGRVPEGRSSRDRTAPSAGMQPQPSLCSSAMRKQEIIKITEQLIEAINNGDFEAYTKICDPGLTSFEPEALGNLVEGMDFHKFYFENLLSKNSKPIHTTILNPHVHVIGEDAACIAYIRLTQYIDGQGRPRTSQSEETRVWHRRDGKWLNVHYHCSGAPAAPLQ
T6 sequence (Q04759 whole entry): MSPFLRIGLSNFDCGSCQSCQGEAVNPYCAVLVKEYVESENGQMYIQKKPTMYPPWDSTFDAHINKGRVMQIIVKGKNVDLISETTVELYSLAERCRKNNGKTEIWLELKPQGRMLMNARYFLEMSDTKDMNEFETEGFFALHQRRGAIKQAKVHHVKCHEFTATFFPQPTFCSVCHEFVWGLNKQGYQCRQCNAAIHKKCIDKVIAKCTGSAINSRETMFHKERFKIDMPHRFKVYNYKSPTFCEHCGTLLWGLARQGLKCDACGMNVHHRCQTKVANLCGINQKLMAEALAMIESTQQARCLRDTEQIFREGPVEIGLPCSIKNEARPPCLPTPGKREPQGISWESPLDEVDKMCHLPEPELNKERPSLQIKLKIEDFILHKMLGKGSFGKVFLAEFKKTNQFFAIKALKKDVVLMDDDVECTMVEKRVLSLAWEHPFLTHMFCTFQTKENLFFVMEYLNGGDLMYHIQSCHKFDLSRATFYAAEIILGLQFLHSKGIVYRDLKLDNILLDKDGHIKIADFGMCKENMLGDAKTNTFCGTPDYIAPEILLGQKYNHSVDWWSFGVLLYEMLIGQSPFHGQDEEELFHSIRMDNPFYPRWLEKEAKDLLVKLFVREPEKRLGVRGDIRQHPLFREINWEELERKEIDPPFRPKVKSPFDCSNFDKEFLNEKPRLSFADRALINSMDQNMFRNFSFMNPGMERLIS
T4 sequence (Q9UQM7 whole entry): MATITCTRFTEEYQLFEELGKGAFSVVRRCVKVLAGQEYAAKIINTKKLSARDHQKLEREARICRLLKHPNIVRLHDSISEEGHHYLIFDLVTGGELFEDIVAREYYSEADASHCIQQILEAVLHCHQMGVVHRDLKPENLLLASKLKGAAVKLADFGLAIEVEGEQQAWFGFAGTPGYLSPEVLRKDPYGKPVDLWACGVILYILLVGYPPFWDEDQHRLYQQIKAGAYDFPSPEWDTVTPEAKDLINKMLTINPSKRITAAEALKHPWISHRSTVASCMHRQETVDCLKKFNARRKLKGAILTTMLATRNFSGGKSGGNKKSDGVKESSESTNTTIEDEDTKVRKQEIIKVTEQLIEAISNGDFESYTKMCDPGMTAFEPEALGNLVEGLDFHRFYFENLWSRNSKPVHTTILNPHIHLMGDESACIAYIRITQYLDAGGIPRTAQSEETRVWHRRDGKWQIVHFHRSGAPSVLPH
T1 sequence (Q9BQI3 whole entry): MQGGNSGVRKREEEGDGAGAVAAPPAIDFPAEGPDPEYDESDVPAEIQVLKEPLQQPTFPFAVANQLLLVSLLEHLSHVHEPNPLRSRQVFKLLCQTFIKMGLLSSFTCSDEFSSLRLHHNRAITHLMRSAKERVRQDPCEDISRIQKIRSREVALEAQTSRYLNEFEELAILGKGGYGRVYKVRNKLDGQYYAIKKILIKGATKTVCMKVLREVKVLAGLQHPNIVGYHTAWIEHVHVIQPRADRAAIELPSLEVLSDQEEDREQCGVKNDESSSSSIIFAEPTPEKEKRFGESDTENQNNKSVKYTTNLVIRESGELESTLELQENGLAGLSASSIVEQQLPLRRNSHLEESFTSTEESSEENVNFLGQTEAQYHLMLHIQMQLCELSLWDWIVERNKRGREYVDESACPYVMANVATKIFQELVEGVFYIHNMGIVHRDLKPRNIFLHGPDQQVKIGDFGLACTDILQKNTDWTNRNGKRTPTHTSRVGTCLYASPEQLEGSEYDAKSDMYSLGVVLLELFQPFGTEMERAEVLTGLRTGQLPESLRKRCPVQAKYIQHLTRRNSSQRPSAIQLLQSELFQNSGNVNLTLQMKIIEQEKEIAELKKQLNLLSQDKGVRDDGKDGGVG

`c1ccc(CNc2cc(-c3c[nH]c4ncccc34)ccn2)cc1` [meriolin 36]: the residual kinase activity on HRI (0.3 µM) is 93 % of control; at HRI (3 µM) it was 71 % of control; at CAMK2G (0.3 µM), 34 % of control; on CAMK2G (3 µM), 6 % of control; at SGK1 (0.3 µM) it was 30 % of control; on SGK1 (3 µM), 10 % of control. The residual kinase activity on CAMK2A (0.3 µM) is reported as 26 % of control; on CAMK2A (3 µM) it was 2 % of control; on WNK1 (0.3 µM), 107 % of control; on WNK1 (3 µM), 98 % of control; at PKCϴ (0.3 µM), 2 % of control; at PKCϴ (3 µM), 1 % of control. For the same compound, the residual kinase activity on MINK1 (0.3 µM) was 2 % of control; on MINK1 (3 µM), 0 % of control; on JNK2 (0.3 µM), 63 % of control; on JNK2 (3 µM), 29 % of control; on EPHB3 (0.3 µM) it was 91 % of control; at EPHB3 (3 µM) it was 67 % of control.
For `COc1ccnc2[nH]cc(-c3cc(N)nc(N)c3)c12` [meriolin 16], the residual kinase activity at HRI (0.03 µM) is 98 % of control; on HRI (0.3 µM) it was 90 % of control; on CAMK2G (0.03 µM), 94 % of control; at CAMK2G (0.3 µM), 82 % of control; on SGK1 (0.03 µM), 92 % of control; at SGK1 (0.3 µM) it was 76 % of control. Also, the residual kinase activity on CAMK2A (0.03 µM) was 103 % of control; at CAMK2A (0.3 µM) it was 81 % of control; at WNK1 (0.03 µM), 101 % of control; at WNK1 (0.3 µM), 100 % of control; on PKCϴ (0.03 µM) it was 40 % of control; on PKCϴ (0.3 µM), 7 % of control. Besides, the residual kinase activity at MINK1 (0.03 µM) was 75 % of control; at MINK1 (0.3 µM) it was 20 % of control; on JNK2 (0.03 µM), 78 % of control; at JNK2 (0.3 µM), 85 % of control; on EPHB3 (0.03 µM), 101 % of control; on EPHB3 (0.3 µM) it was 99 % of control.
